Laboratory results published in patent US8227625B2, “4,5,6,7-tetrahydrobenzo[b]thiophene derivatives and their use as sigma receptor ligands” (Laboratorios del Dr. Esteve, S.A., priority 2006, dated 2012).

How the values were obtained:
[1] = target: T1, Sigma-1 receptor (Cavia porcellus, UniProt Q60492); assay: Sigma-1 receptor radioligand binding assay, [3H](+)-pentazocine, guinea pig brain membranes; details: [3H](+)-pentazocine 0.5 nM; for % Binding σ1 10^−7M: compound at 10^−7M; for % Binding σ1 10^−8M: compound at 10^−8M
T1 construct: from tissue; host or cells: guinea pig brain membranes
Method: Brain membrane preparation and binding assays for the al-receptor were performed as described (DeHaven-Hudkins et al., 1992) with some modifications. In brief, guinea pig brains were homogenized in 10 vols. (w/v) of Tris-HCl 50 mM 0.32 M sucrose, pH 7.4, with a Kinematica Polytron PT 3000 at 15000 r.p.m. for 30 s. The homogenate was centrifuged at 1000 g for 10 min at 4° C. and the supernatants collected and centrifuged again at 48000 g for 15 min at 4° C. The pellet was resuspended in 10 volumes of Tris-HCl buffer (50 mM, pH 7.4), incubated at 37° C. for 30 min, and centrifuged at 48000 g for 20 min at 4° C. Following this, the pellet was resuspended in fresh Tris-HCl buffer (50 mM, pH 7.4) and stored on ice until use.
Each assay tube contained 10 μL of [^3H](+)-pentazocine (final concentration of 0.5 nM), 900 μL of the tissue suspension to a final assay volume of 1 mL and a final tissue concentration of approximately 30 mg tissue net weight/mL. Non-specific binding was defined by addition of a final concentration of 1 μM haloperidol. All tubes were incubated at 37° C. for 150 min before termination of the reaction by rapid filtration over Schleicher & Schuell GF 3362 glass fibre filters [previously soaked in a solution of 0.5% polyethylenimine for at least 1 h]. Filters were then washed with four times with 4 mL of cold Tris-HCl buffer (50 mM, pH 7.4). Following addition of scintillation cocktail, the samples were allowed to equilibrate overnight. The amount of bound radioactivity was determined by liquid scintillation spectrometry using a Wallac Winspectral 1414 liquid scintillation counter. Protein concentrations were determined by the method of Lowry et al. (1951).

T1 sequence (Q60492 whole entry): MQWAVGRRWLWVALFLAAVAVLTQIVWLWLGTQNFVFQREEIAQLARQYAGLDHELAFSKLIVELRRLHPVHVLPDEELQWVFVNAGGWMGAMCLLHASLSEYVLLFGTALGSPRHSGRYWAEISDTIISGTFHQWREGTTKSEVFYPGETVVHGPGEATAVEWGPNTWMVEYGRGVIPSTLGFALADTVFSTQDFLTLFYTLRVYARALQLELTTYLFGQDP

SMILES	% Binding σ1 10^−7M [1]	% Binding σ1 10^−8M [1]	melting point
C(/CN1CCCCC1)=C1/CCCc2sccc21 [Example 9, (E)-1-(2-(6,7-dihydrobenzo[b]thien-4(5H)-ylidene)ethyl)piperidine]	23%	5%	
C(/CN1CCC(c2ccccc2)CC1)=C1/CCCc2sccc21 [Example 5, (E)-1-(2-(6,7-dihydrobenzo[b]thien-4(5H)-ylidene)ethyl)-4-phenylpiperidine]	84.5%	32.8%	
CN(C/C=C1\CCCc2sccc21)Cc1ccccc1 [Example 3, (E)-N-benzyl-2-(6,7-dihydrobenzo[b]thien-4(5H)-ylidene)-N-methylethanamine]	70.6%	27.3%	
O=C(O)C(=O)O.c1ccc2c(c1)COC21CCN(CCC2CCCc3sccc32)CC1 (centres unmarked)			172 to 176 °C
C1=CC2(CCN(CCC3CCCc4sccc43)CC2)c2ccccc21.O=C(O)C(=O)O (centres unmarked)			198 to 199 °C
O=C(O)C(=O)O.O=C1NCCC12CCN(CCC1CCCc3sccc31)CC2 (centres unmarked) [Example 71, 8-[2-(4,5,6,7-Tetrahydrobenzo[b]thiophen-4-yl)-ethyl]-2,8-diazaspiro[4.5]decan-1-one oxalate]			147 to 149 °C
Cc1nc2ccccc2n1C1CCN(CCC2CCCc3sccc32)CC1.O=C(O)C(=O)O (centres unmarked) [Example 61, 2-methyl-1-(1-(2-(4,5,6,7-tetrahydrobenzo[b]thiophen-4-yl)ethyl)piperidin-4-yl)-1H-benzo[d]imidazole oxalate]			155 to 157 °C
O=C(O)C(=O)O.c1ccc2oc(C3CCN(CCC4CCCc5sccc54)CC3)cc2c1 (centres unmarked) [Example 52, 4-(benzofuran-2-yl)-1-(2-(4,5,6,7-tetrahydrobenzo[b]thiophen-4-yl)ethyl)piperidine oxalate]			207 to 208 °C
Brc1cccc2c1CCN(CCC1CCCc3sccc31)C2.O=C(O)C(=O)O (centres unmarked) [Example 91, 5-bromo-2-(2-(4,5,6,7-tetrahydrobenzo[b]thiophen-4-yl)ethyl)-1,2,3,4-tetrahydroisoquinoline oxalate]			167 to 168 °C
CN(C/C=C1\CCCc2sccc21)CCc1ccccc1 [Example 7, (E)-N-(2-(6,7-dihydrobenzo[b]thien-4(5H)-ylidene)ethyl)-N-methyl-2-phenylethanamine]	89.3%	48.6%	
O=C(O)C(=O)O.O=C1N(c2ccc(Cl)cc2)CCC12CCN(CCC1CCCc3sccc31)CC2 (centres unmarked) [Example 69, 2-(4-Chlorophenyl)-8-[2-(4,5,6,7-tetrahydrobenzo[b]thiophen-4-yl)-ethyl]-2,8-diazaspiro[4.5]decan-1-one oxalate]			218 to 220 °C
CC1CCN(C/C=C2\CCCc3sccc32)CC1 [Example 11, (E)-1-(2-(6,7-dihydrobenzo[b]thien-4(5H)-ylidene)ethyl)-4-methylpiperidine]	70.9%	18.2%	
FC(F)(F)c1ccc(C2CCN(CCC3CCCc4sccc43)CC2)cc1.O=C(O)C(=O)O (centres unmarked) [Example 26, 1-(2-(4,5,6,7-tetrahydrobenzo[b]thiophen-4-yl)ethyl)-4-(4-(trifluoromethyl)phenyl)piperidine oxalate]			180 to 182 °C
CN(CCC1CCCc2sccc21)Cc1ccccc1.O=C(O)C(=O)O (centres unmarked) [Example 24, N-benzyl-N-methyl-2-(4,5,6,7-tetrahydrobenzo[b]thien-4-yl)ethanamine oxalate]			168 to 171 °C
COc1ccc(N2CCC3(CCN(CCC4CCCc5sccc54)CC3)C2=O)cc1.O=C(O)C(=O)O (centres unmarked) [Example 85, 2-(4-Methoxyphenyl)-8-[2-(4,5,6,7-tetrahydrobenzo[b]thiophen-4-yl)-ethyl]-2,8diazaspiro[4.5]decan-1-one oxalate]			205 to 206 °C
O=C(O)C(=O)O.OC1(c2ccc(Cl)cc2)CCN(CCC2CCCc3sccc32)CC1 (centres unmarked)			184 to 185 °C
Clc1cccc(C2CCN(CCC3CCCc4sccc43)CC2)c1.O=C(O)C(=O)O (centres unmarked) [Example 42, 4-(3-chlorophenyl)-1-(2-(4,5,6,7-tetrahydrobenzo[b]thiophen-4-yl)ethyl)piperidine oxalate]			185 to 186 °C

SMILES	% Binding σ1 10^−7M [1]	% Binding σ1 10^−8M [1]	melting point
O=C(O)C(=O)O.c1ccc2c(C3CCN(CCC4CCCc5sccc54)CC3)csc2c1 (centres unmarked) [Example 57, 4-(benzo[b]thiophen-3-yl)-1-(2-(4,5,6,7-tetrahydrobenzo[b]thiophen-4-yl)ethyl)piperidine oxalate]			190 to 192 °C
COc1cccc(C2CCN(CCC3CCCc4sccc43)CC2)c1.O=C(O)C(=O)O (centres unmarked) [Example 44, 4-(3-methoxyphenyl)-1-(2-(4,5,6,7-tetrahydrobenzo[b]thiophen-4-yl)ethyl)piperidine oxalate]			157 to 159 °C
Clc1ccc(C2CCN(CCC3CCCc4sccc43)CC2)cc1.O=C(O)C(=O)O (centres unmarked) [Example 34, 4-(4-chlorophenyl)-1-(2-(4,5,6,7-tetrahydrobenzo[b]thiophen-4-yl)ethyl)piperidine oxalate]			201 to 202 °C
CC(C)(C)N1CCC2(CCN(CCC3CCCc4sccc43)CC2)C1=O.O=C(O)C(=O)O (centres unmarked) [Example 81, 2-tert-butyl-8-[2-(4,5,6,7-tetrahydrobenzo[b]thiophen-4-yl)-ethyl]-2,8-diazaspiro[4.5]decan-1-one oxalate]			172 to 173 °C
CN(C/C=C1\CCCc2sccc21)Cc1ccccc1.O=C(O)C(=O)O [Example 4, (E)-N-benzyl-2-(6,7-dihydrobenzo[b]thien-4(5H)-ylidene)-N-methylethanamine oxalate]			139 to 141 °C
FC(F)(F)c1cc(C2CCN(CCC3CCCc4sccc43)CC2)cc(C(F)(F)F)c1.O=C(O)C(=O)O (centres unmarked) [Example 48, 4-(3,5-bis(trifluoromethyl)phenyl)-1-(2-(4,5,6,7-tetrahydrobenzo[b]thiophen-4-yl)ethyl)piperidine oxalate]			205 to 206 °C
O=C(O)C(=O)O.c1ccc2cc(C3CCN(CCC4CCCc5sccc54)CC3)ccc2c1 (centres unmarked) [Example 50, 4-(naphthalen-2-yl)-1-(2-(4,5,6,7-tetrahydrobenzo[b]thiophen-4-yl)ethyl)piperidine oxalate]			203 to 205 °C
O=C(O)C(=O)O.O=C1OC2(CCN(CCC3CCCc4sccc43)CC2)c2ccccc21 (centres unmarked)			186 to 189 °C
Fc1ccc(C2CCN(CCC3CCCc4sccc43)CC2)cc1.O=C(O)C(=O)O (centres unmarked) [Example 46, 4-(4-fluorophenyl)-1-(2-(4,5,6,7-tetrahydrobenzo[b]thiophen-4-yl)ethyl)piperidine oxalate]			179 to 181 °C
N#Cc1ccc2c(c1)CN(CCC1CCCc3sccc31)CC2.O=C(O)C(=O)O (centres unmarked) [Example 93, 2-(2-(4,5,6,7-tetrahydrobenzo[b]thiophen-4-yl)ethyl)-1,2,3,4-tetrahydroisoquinoline-7-carbonitrile oxalate]			180 to 181 °C
COc1ccc(C2CCN(CCC3CCCc4sccc43)CC2)cc1.O=C(O)C(=O)O (centres unmarked) [Example 63, 4-(4-methoxyphenyl)-1-(2-(4,5,6,7-tetrahydrobenzo[b]thiophen-4-yl)ethyl)piperidine oxalate]			175 to 176 °C
O=C(O)C(=O)O.O=C1N(c2ccc(C(F)(F)F)cc2)CCC12CCN(CCC1CCCc3sccc31)CC2 (centres unmarked) [Example 89, 2-(4-trifluoromethylphenyl)-8-[2-(4,5,6,7-tetrahydrobenzo[b]thiophen-4-yl)-ethyl]-2,8-diazaspiro[4.5]decan-1-one oxalate]			166 to 168 °C
COc1ccc2c(c1)CN(CCC1CCCc3sccc31)CC2.O=C(O)C(=O)O (centres unmarked) [Example 75, 7-methoxy-2-(2-(4,5,6,7-tetrahydrobenzo[b]thiophen-4-yl)ethyl)-1,2,3,4-tetrahydroisoquinoline oxalate]			200 to 201 °C
O=C(O)C(=O)O.c1ccc2[nH]c(C3CCN(CCC4CCCc5sccc54)CC3)nc2c1 (centres unmarked) [Example 59, 2-(1-(2-(4,5,6,7-tetrahydrobenzo[b]thiophen-4-yl)ethyl)piperidin-4-yl)-1H-benzo[d]imidazole oxalate]			223 to 225 °C
Fc1cccc(C2CCN(CCC3CCCc4sccc43)CC2)c1.O=C(O)C(=O)O (centres unmarked) [Example 30, 4-(3-fluorophenyl)-1-(2-(4,5,6,7-tetrahydrobenzo[b]thiophen-4-yl)ethyl)piperidine oxalate]			203 to 204 °C
CC1CCN(C/C=C2\CCCc3sccc32)CC1.O=C(O)C(=O)O [Example 12, (E)-1-(2-(6,7-dihydrobenzo[b]thien-4(5H)-ylidene)ethyl)-4-methylpiperidine oxalate]			139 to 141 °C
